Here are results for 22 compounds from patent publication US20250136586A1, “Substituted 7-(Pyrimidin-4-yl)Quinolin-4(1H)-One Compounds as Cyclin Dependent Kinase Inhibitors” (BeiGene, Ltd., priority 2022, published 2025).

The target of one assay is CDK6/Cyclin D3 (Homo sapiens (Human), UniProt Q00534). In words: TR-FRET kinase inhibition assay, CDK6/Cyclin D3. Conditions: 1 mM ATP, 0.15 μM Rb (Ser780)-biotin substrate, read-out: CDK6D3 IC50. In kind it is biochemical. Put shortly:
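Kinase preincubated 60 min at room temperature with 0–10 μM compound; reaction started with 1 mM ATP and 0.15 μM Rb (Ser780)-biotin, run 120 min at room temperature in HEPES pH 7.0, 50 mM MgCl2. pRb detected by TR-FRET (665/620 nm ratio); IC50 from four-parameter logistic fit.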

For the next assay, the target named is CDK4/Cyclin D1 (Homo sapiens (Human), UniProt P11802). In words: TR-FRET kinase inhibition assay, CDK4/Cyclin D1. In kind it is biochemical. Conditions: 1 mM ATP, 0.15 μM Rb (Ser780)-biotin substrate, read-out: CDK4D1 IC50. Put shortly: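 Kinase was preincubated with compound for 60 min at room temperature, then reacted with ATP and Rb (Ser780)-biotin substrate for 120 min. IC50 came from a four-parameter logistic fit.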
On the technique in general: TR-FRET usually uses a lanthanide donor and a delayed reading to cut background.

Each structure is given as a SMILES string.

CDK4/Cyclin D1, sequence (P11802 whole entry): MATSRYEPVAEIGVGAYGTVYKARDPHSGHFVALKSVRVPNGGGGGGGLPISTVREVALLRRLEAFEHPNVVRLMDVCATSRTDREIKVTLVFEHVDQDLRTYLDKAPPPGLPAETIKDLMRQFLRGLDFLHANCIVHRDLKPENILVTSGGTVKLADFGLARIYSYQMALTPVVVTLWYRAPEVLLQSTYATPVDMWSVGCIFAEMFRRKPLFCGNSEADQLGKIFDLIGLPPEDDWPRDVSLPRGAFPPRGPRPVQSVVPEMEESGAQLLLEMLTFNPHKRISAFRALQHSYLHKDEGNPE
CDK4/Cyclin D1, sequence (P24385 whole entry partner): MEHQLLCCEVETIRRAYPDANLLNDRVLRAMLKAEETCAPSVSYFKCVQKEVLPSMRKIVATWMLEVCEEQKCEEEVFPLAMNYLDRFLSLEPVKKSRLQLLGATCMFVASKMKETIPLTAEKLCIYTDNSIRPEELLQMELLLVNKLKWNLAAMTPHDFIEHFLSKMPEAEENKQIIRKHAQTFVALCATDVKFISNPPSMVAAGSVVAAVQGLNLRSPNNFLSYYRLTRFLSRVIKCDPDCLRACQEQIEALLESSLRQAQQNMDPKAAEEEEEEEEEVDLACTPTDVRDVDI
CDK6/Cyclin D3, sequence (Q00534 whole entry): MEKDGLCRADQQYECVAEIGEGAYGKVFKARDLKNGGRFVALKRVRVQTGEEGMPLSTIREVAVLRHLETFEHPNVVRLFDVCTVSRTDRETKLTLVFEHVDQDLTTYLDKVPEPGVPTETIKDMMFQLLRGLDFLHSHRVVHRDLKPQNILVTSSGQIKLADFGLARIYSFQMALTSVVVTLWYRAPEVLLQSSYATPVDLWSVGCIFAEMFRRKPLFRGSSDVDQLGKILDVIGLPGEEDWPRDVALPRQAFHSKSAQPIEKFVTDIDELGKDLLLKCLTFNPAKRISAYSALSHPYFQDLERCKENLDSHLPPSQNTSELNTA
CDK6/Cyclin D3, sequence (P30281 whole entry partner): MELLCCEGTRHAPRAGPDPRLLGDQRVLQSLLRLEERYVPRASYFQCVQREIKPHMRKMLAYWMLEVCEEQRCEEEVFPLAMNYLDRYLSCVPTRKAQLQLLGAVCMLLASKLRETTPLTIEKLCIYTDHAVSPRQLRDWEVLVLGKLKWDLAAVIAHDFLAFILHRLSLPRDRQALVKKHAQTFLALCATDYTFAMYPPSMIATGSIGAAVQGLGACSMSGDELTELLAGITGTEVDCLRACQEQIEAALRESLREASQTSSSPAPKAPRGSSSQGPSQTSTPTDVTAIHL

As for `CC(C)n1c(CNC(C)(C)C)cc(=O)c2ccc(-c3nc(N[C@@H]4CCOC[C@H]4O)ncc3F)cc21` [Example 75, 2-((tert-butylamino)methyl)-7-(5-fluoro-2-(((3S,4R)-3-hydroxytetrahydro-2H-pyran-4-yl)amino)pyrimidin-4-yl)-1-isopropylquinolin-4(1H)-one], the IC50 stood at 525 nM on CDK6/Cyclin D3 and 21 nM on CDK4/Cyclin D1.
Turning to `CC(C)n1c(CN2CCC[C@@H](C#N)C2)cc(=O)c2ccc(-c3nc(N[C@@H]4CCOC[C@H]4O)ncc3F)cc21` [Example 88, (R)-1-((7-(5-fluoro-2-(((3S,4R)-3-hydroxytetrahydro-2H-pyran-4-yl)amino)pyrimidin-4-yl)-1-isopropyl-4-oxo-1,4-dihydroquinolin-2-yl)methyl)piperidine-3-carbonitrile], the concentration for half-maximal inhibition (IC50) on CDK6/Cyclin D3 was found to be 406 nM; on CDK4/Cyclin D1, 4.1 nM.
Regarding `CC(C)n1c(CN2CCC[C@H](F)C2)cc(=O)c2ccc(-c3nc(N[C@@H]4CCOC[C@H]4O)ncc3F)cc21` [Example 69, 7-(5-fluoro-2-(((3S,4R)-3-hydroxytetrahydro-2H-pyran-4-yl)amino)pyrimidin-4-yl)-2-(((S)-3-fluoropiperidin-1-yl)methyl)-1-isopropylquinolin-4(1H)-one], the results for the 50% inhibitory concentration (IC50) at CDK6/Cyclin D3 and at CDK4/Cyclin D1 were 693 nM and 21 nM, respectively.
Turning to `CC(C)n1c(CN2CCO[C@@H](C)C2)cc(=O)c2ccc(-c3nc(N[C@@H]4CCOC[C@H]4O)ncc3F)cc21` [Example 62, 7-(5-fluoro-2-(((3S,4R)-3-hydroxytetrahydro-2H-pyran-4-yl)amino)pyrimidin-4-yl)-1-isopropyl-2-(((S)-2-methylmorpholino)methyl)quinolin-4(1H)-one], the figures for the IC50 at CDK6/Cyclin D3 and at CDK4/Cyclin D1 were 255 nM and 17 nM, respectively.
For `CC(C)n1c(CN2C[C@@H]3C[C@H]2CO3)cc(=O)c2ccc(-c3nc(N[C@@H]4CCOC[C@H]4O)ncc3F)cc21` [Example 34, 2-(((1S,4S)-2-oxa-5-azabicyclo[2.2.1]heptan-5-yl)methyl)-7-(5-fluoro-2-(((3S,4R)-3-hydroxytetrahydro-2H-pyran-4-yl)amino)pyrimidin-4-yl)-1-isopropylquinolin-4(1H)-one], the concentration for half-maximal inhibition (IC50) at CDK6/Cyclin D3 was found to be 430 nM; at CDK4/Cyclin D1, 10 nM.
Regarding `CC(C)n1c(CN2CCC[C@@H](F)C2)cc(=O)c2ccc(-c3nc(N[C@@H]4CCOC[C@H]4O)ncc3F)cc21` [Example 98, 7-(5-fluoro-2-(((3S,4R)-3-hydroxytetrahydro-2H-pyran-4-yl)amino)pyrimidin-4-yl)-2-(((R)-3-fluoropiperidin-1-yl)methyl)-1-isopropylquinolin-4(1H)-one], the IC50 at CDK6/Cyclin D3 is 370 nM; on CDK4/Cyclin D1 it was 8.6 nM.
With `CC(C)n1c(CN2CCCC2)cc(=O)c2ccc(-c3nc(N[C@@H]4CCOC[C@H]4O)ncc3F)cc21` [Example 100, 7-(5-fluoro-2-(((3S,4R)-3-hydroxytetrahydro-2H-pyran-4-yl)amino)pyrimidin-4-yl)-1-isopropyl-2-(pyrrolidin-1-ylmethyl)quinolin-4(1H)-one], the figures for the half-inhibitory concentration (IC50) at CDK6/Cyclin D3 and on CDK4/Cyclin D1 were 760 nM and 19 nM, respectively.
`CC(C)n1c(CN2C[C@@H](O)[C@@H](F)C2)cc(=O)c2ccc(-c3nc(N[C@@H]4CCOC[C@H]4O)ncc3F)cc21` [Example 31, 7-(5-fluoro-2-(((3S,4R)-3-hydroxytetrahydro-2H-pyran-4-yl)amino)pyrimidin-4-yl)-2-(((3S,4R)-3-fluoro-4-hydroxypyrrolidin-1-yl)methyl)-1-isopropylquinolin-4(1H)-one]: the figures for the IC50 on CDK6/Cyclin D3 and on CDK4/Cyclin D1 were 481 nM and 13 nM, respectively.
For `CC(C)n1c(CNC2CCCC2)cc(=O)c2ccc(-c3nc(N[C@@H]4CCOC[C@H]4O)ncc3F)cc21` [Example 66, 2-((cyclopentylamino)methyl)-7-(5-fluoro-2-(((3S,4R)-3-hydroxytetrahydro-2H-pyran-4-yl)amino)pyrimidin-4-yl)-1-isopropylquinolin-4(1H)-one], in that order: 651 nM and 21 nM.
Regarding `CNC(=O)c1cc(=O)c2c(Cl)cc(-c3nc(N[C@@H]4CCOC[C@H]4O)ncc3F)cc2n1C(C)C` [Example 36, 5-chloro-7-(5-fluoro-2-(((3S,4R)-3-hydroxytetrahydro-2H-pyran-4-yl)amino)pyrimidin-4-yl)-1-isopropyl-N-methyl-4-oxo-1,4-dihydroquinoline-2-carboxamide], the IC50 on CDK6/Cyclin D3 was 553 nM; at CDK4/Cyclin D1 it was 57 nM.
Consider `CC(C)n1c(CN2[C@@H](C)COC[C@@H]2C)cc(=O)c2ccc(-c3nc(N[C@@H]4CCOC[C@H]4O)ncc3F)cc21` [Example 93, 2-(((3S,5S)-3,5-dimethylmorpholino)methyl)-7-(5-fluoro-2-(((3S,4R)-3-hydroxytetrahydro-2H-pyran-4-yl)amino)pyrimidin-4-yl)-1-isopropylquinolin-4(1H)-one], for which the IC50 came out at 296 nM at CDK6/Cyclin D3 and 8.7 nM on CDK4/Cyclin D1.
`CC(C)n1c(CNc2ccccc2)cc(=O)c2ccc(-c3nc(N[C@@H]4CCOC[C@H]4O)ncc3F)cc21` [Example 94, 7-(5-fluoro-2-(((3S,4R)-3-hydroxytetrahydro-2H-pyran-4-yl)amino)pyrimidin-4-yl)-1-isopropyl-2-((phenylamino)methyl)quinolin-4(1H)-one]: the IC50 amounted to 165 nM on CDK6/Cyclin D3 and 11 nM at CDK4/Cyclin D1.
Regarding `CC(C)n1c(CN2[C@H](C)COC[C@H]2C)cc(=O)c2ccc(-c3nc(N[C@@H]4CCOC[C@H]4O)ncc3F)cc21` [Example 106, 2-(((3R,5R)-3,5-dimethylmorpholino)methyl)-7-(5-fluoro-2-(((3S,4R)-3-hydroxytetrahydro-2H-pyran-4-yl)amino)pyrimidin-4-yl)-1-isopropylquinolin-4(1H)-one], the results for the IC50 on CDK6/Cyclin D3 and at CDK4/Cyclin D1 were 298 nM and 4.8 nM, respectively.
As to `CC(C)n1c(CN2CCOC[C@H]2C)cc(=O)c2ccc(-c3nc(N[C@@H]4CCOC[C@H]4O)ncc3F)cc21` [Example 82, 7-(5-fluoro-2-(((3S,4R)-3-hydroxytetrahydro-2H-pyran-4-yl)amino)pyrimidin-4-yl)-1-isopropyl-2-(((R)-3-methylmorpholino)methyl)quinolin-4(1H)-one], the results for the half-inhibitory concentration (IC50) at CDK6/Cyclin D3 and at CDK4/Cyclin D1 were 540 nM and 12 nM, respectively.
Turning to `CC(C)n1c(CN2CCC(C)(O)CC2)cc(=O)c2ccc(-c3nc(N[C@@H]4CCOC[C@H]4O)ncc3F)cc21` [Example 38, 7-(5-fluoro-2-(((3S,4R)-3-hydroxytetrahydro-2H-pyran-4-yl)amino)pyrimidin-4-yl)-2-((4-hydroxy-4-methylpiperidin-1-yl)methyl)-1-isopropylquinolin-4(1H)-one], the IC50 worked out at 888 nM at CDK6/Cyclin D3 and 24 nM at CDK4/Cyclin D1.
The matching figures for `Cc1c(CN2CCC[C@@H](O)C2)n(C(C)C)c2cc(-c3nc(N[C@@H]4CCOC[C@H]4O)ncc3F)ccc2c1=O` [Example 122, 7-(5-fluoro-2-(((3S,4R)-3-hydroxytetrahydro-2H-pyran-4-yl)amino)pyrimidin-4-yl)-2-(((R)-3-hydroxypiperidin-1-yl)methyl)-1-isopropyl-3-methylquinolin-4(1H)-one]: 68.8 nM and 1.6 nM.
The matching figures for `CC(C)n1c(CN2CCC3(CCCO3)C2)cc(=O)c2ccc(-c3nc(N[C@@H]4CCOC[C@H]4O)ncc3F)cc21` (stereo partly drawn) [Example 91, 2-((1-oxa-7-azaspiro[4.4]nonan-7-yl)methyl)-7-(5-fluoro-2-(((3S,4R)-3-hydroxytetrahydro-2H-pyran-4-yl)amino)pyrimidin-4-yl)-1-isopropylquinolin-4(1H)-one]: 1060 nM and 24 nM.
Regarding `CC(C)n1c(CN[C@H]2C[C@H](F)C2)cc(=O)c2ccc(-c3nc(N[C@@H]4CCOC[C@H]4O)ncc3F)cc21` [Example 63, 7-(5-fluoro-2-(((3S,4R)-3-hydroxytetrahydro-2H-pyran-4-yl)amino)pyrimidin-4-yl)-2-((((1r,3R)-3-fluorocyclobutyl)amino)methyl)-1-isopropylquinolin-4(1H)-one], the half-inhibitory concentration (IC50) on CDK6/Cyclin D3 amounted to 484 nM; on CDK4/Cyclin D1, 22 nM.
`CC(C)n1c(CN2C[C@H]3COC[C@H]3C2)cc(=O)c2ccc(-c3nc(N[C@@H]4CCOC[C@H]4O)ncc3F)cc21` [Example 41, 7-(5-fluoro-2-(((3S,4R)-3-hydroxytetrahydro-2H-pyran-4-yl)amino)pyrimidin-4-yl)-1-isopropyl-2-(((3aR,6aS)-tetrahydro-1H-furo[3,4-c]pyrrol-5(3H)-yl)methyl)quinolin-4(1H)-one]: the concentration for half-maximal inhibition (IC50) on CDK6/Cyclin D3 was found to be 1300 nM; on CDK4/Cyclin D1, 24 nM.
For `Cc1c(CN2CCC(F)(F)CC2)n(C(C)C)c2cc(-c3nc(N[C@@H]4CCOC[C@H]4O)ncc3F)ccc2c1=O` [Example 121, 2-((4,4-difluoropiperidin-1-yl)methyl)-7-(5-fluoro-2-(((3S,4R)-3-hydroxytetrahydro-2H-pyran-4-yl)amino)pyrimidin-4-yl)-1-isopropyl-3-methylquinolin-4(1H)-one], in that order: 113 nM and 4.7 nM.
As for `CC(C)n1c(CN2C3COCC2C3)cc(=O)c2ccc(-c3nc(N[C@@H]4CCOC[C@H]4O)ncc3F)cc21` [Example 68, 2-((3-oxa-6-azabicyclo[3.1.1]heptan-6-yl)methyl)-7-(5-fluoro-2-(((3S,4R)-3-hydroxytetrahydro-2H-pyran-4-yl)amino)pyrimidin-4-yl)-1-isopropylquinolin-4(1H)-one], the IC50 worked out at 1220 nM on CDK6/Cyclin D3 and 34 nM on CDK4/Cyclin D1.
As to `COc1ccc(NCc2cc(=O)c3ccc(-c4nc(N[C@@H]5CCOC[C@H]5O)ncc4F)cc3n2C(C)C)cc1` [Example 101, 7-(5-fluoro-2-(((3S,4R)-3-hydroxytetrahydro-2H-pyran-4-yl)amino)pyrimidin-4-yl)-1-isopropyl-2-(((4-methoxyphenyl)amino)methyl)quinolin-4(1H)-one], the IC50 worked out at 312 nM at CDK6/Cyclin D3 and 26 nM at CDK4/Cyclin D1.

Usually IC50 stands for the concentration at which inhibition is half-maximal.
